How the values were obtained:
[1] = tested on: ATR-driven phosphorylation of Chk1 kinase at Serine 345 in HT-29 cells; assay: pCHK1 cellular assay (CHK1 p-Ser345 AlphaScreen SureFire); assay type: cell-based; settings: Homo sapiens; HT-29 colorectal adenocarcinoma cells; 4-nitroquinoline N-oxide 12 μM; read-out: Cell IC50 (pCHK1)
Experimental: (§1) The ability of the compounds of Formula I to inhibit the catalytic activity of the ATR/ATRIP complex was measured in a Caliper-based assay, and in HT-29 cells in an Alphascreen assay, following the ATR-mediated phosphorylation of CHK1, described below.
Cellular IC50 for the inhibitors of ATR described herein were measured in HT-29 colorectal adenocarcinoma cells.
The microplate was incubated overnight (approximately 20 hours) at 37° C. with 5% CO2 and ambient O2. Stock solutions of the test compounds were prepared in 100% DMSO (Sigma, Catalog #D2650) and serially diluted 1:3 using 100% DMSO. Compounds were additionally diluted 1:33 in culture medium, and 10 μL/well were transferred to the tissue culture plate. Following the compound addition, the microplate was incubated at 37° C. for 90 minutes. […] The cells were then washed with PBS and lysed using 10 μL/well […]® Kit lysis buffer diluted to 1× in water (PerkinElmer Catalog #TGRCHK1S50K), with mixing on an orbital shaker at 500 rpm for 20 min at room temperature. Lysates were frozen at −20 OC overnight.
The pCHK1 ALPHASCREEN® signal was measured using an ENVISION® plate reader (PerkinElmer). IC50 values were calculated using a four-parameter logistic curve fit using Genedata Screener software. Percent of control for each compound concentration was calculated by the following formula: 100*(Compound−Min)/(Max−Min), where “Max” is the high control, DMSO, and “Min” is the low control, 5 μM ATR inhibitor.

ATR/ATRIP complex = ATR/ATRIP complex (Homo sapiens (Human), UniProt Q13535); assay: ATR/ATRIP enzymatic assay (Caliper-based); assay type: biochemical; settings: ATR/ATRIP enzyme; FAM-labeled RAD17 peptide, ATP
Experimental: as §1
Human full-length FLAG-TEV-ATR and His6-ATRIP were co-expressed in HEK293 cells. […] The sample was loaded into a column, and then washed with buffer A three times. Protein was subsequently eluted with 2 ml of buffer B (buffer A+200 μg/ml 3×FLAG peptide).
The ability of new chemical matter to inhibit the ATR catalytic activity in this ATR/ATRIP complex was assessed using a Caliper-based assay. A 2× enzyme solution (i.e., 4 nM enzyme) was prepared using 1× Kinase Reaction Buffer (25 mM HEPES pH 8, 0.0055% Brij-35, 10 mM MnCl2, and 1 mM DTT). […] 10 μL of the 2× enzyme solution was transferred to an assay plate containing 60 nL of test compound (from a 3× serial dilution) in 100% DMSO. Following a 30-min incubation at 28° C., 10 μL of the 2× peptide solution was then transferred to the same assay plate. The reaction incubated at 28° C. for 6 h. After adding 30 μL stop buffer (100 mM HEPES pH 7.5, 0.015% Brij-35, 0.2% Coating-3 Reagent (PerkinElmer, catalog #PN760050), and 50 mM EDTA), data were collected on a Caliper instrument. Conversion values were converted to inhibition values via the following equation: % inhibition=(max−conversion)/(max−min)*100, wherein “max” corresponds to the DMSO control, and “min” corresponds to the low control. IC50 values were calculated using the following equation in XLFit: Y=Bottom+(Top−Bottom)/1+(IC50/X)^HillSlope).

Sequence of ATR/ATRIP complex (Q13535 whole entry): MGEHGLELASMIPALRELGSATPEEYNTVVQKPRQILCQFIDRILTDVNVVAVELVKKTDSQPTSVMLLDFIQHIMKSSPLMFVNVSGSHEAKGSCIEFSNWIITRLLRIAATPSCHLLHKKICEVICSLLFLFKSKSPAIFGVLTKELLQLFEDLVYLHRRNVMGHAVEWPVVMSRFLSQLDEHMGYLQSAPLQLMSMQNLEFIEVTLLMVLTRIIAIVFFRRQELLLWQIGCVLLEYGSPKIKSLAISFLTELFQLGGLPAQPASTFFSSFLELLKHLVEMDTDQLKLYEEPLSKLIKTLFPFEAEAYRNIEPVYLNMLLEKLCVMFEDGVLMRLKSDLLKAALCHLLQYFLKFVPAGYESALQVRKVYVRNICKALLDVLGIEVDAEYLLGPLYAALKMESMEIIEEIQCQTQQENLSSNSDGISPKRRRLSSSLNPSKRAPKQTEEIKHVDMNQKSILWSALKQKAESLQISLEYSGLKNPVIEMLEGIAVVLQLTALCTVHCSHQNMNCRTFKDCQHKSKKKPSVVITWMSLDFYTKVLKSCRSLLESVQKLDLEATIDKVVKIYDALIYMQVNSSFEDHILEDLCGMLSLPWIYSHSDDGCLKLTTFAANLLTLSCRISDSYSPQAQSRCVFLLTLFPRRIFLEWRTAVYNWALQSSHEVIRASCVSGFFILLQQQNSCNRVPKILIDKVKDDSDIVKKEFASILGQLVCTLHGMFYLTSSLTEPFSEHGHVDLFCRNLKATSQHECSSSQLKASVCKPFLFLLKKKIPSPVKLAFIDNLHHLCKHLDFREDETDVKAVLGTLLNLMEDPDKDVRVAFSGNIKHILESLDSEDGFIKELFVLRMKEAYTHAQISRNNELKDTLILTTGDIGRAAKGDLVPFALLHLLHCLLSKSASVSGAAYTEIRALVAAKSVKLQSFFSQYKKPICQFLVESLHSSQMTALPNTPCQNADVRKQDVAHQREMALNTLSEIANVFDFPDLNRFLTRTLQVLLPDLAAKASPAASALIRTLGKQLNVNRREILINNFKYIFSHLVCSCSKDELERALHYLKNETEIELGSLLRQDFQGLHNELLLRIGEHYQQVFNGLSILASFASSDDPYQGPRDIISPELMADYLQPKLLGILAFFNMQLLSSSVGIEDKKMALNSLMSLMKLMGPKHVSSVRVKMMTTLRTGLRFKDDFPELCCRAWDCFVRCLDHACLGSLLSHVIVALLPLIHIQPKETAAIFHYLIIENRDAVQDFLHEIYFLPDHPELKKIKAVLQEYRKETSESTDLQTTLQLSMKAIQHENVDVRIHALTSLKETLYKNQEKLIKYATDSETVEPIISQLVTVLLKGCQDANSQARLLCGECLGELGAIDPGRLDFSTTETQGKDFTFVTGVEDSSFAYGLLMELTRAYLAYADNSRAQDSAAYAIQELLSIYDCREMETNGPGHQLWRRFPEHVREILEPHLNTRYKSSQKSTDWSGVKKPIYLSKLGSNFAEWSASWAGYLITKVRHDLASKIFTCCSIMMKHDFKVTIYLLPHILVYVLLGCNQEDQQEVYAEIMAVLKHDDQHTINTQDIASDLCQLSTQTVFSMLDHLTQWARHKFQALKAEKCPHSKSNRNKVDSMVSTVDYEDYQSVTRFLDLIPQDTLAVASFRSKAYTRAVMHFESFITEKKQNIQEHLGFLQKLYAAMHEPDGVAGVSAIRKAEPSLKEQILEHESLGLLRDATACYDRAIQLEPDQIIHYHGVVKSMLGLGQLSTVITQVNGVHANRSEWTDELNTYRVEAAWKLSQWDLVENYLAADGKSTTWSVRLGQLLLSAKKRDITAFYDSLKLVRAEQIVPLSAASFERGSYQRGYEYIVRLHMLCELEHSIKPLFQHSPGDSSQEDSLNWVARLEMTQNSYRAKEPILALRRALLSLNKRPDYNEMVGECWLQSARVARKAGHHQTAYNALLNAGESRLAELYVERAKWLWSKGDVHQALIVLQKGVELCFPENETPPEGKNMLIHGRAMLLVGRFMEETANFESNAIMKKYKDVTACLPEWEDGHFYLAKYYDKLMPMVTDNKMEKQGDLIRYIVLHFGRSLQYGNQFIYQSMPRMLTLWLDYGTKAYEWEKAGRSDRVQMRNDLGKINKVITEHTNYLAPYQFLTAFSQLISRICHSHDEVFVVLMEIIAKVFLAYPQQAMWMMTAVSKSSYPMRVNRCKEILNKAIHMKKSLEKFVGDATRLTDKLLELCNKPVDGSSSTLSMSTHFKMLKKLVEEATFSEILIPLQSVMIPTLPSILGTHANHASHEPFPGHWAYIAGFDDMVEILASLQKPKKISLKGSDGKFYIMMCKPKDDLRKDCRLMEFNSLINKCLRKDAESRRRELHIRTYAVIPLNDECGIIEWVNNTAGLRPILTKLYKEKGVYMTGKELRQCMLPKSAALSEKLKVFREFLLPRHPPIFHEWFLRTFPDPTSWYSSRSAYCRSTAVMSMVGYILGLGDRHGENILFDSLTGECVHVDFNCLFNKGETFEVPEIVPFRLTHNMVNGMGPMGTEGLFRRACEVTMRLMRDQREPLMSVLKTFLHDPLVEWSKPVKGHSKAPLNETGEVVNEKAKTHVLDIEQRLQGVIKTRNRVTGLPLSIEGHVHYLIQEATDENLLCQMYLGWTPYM
Sequence of ATR/ATRIP complex (Q8WXE1 whole entry partner): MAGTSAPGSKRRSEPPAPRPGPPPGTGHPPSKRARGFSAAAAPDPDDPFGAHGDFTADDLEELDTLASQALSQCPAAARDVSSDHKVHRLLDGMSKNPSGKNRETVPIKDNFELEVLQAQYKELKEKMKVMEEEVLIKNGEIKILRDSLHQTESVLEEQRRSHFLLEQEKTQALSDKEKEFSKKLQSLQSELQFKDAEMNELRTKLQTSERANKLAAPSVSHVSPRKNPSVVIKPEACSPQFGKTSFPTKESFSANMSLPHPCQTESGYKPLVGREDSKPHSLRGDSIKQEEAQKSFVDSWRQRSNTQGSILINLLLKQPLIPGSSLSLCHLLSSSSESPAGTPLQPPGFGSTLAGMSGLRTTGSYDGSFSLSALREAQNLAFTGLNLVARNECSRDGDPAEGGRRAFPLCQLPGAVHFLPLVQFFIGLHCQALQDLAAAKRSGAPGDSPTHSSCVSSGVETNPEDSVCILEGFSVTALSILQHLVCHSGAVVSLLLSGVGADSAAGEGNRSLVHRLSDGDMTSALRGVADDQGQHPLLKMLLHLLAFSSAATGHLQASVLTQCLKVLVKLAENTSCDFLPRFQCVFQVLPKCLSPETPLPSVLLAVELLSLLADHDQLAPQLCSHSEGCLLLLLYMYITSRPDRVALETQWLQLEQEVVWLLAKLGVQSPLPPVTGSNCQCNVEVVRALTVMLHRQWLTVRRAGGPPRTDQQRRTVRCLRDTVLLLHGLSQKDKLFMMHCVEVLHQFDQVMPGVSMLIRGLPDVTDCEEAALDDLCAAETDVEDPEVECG

| IC50 [1] | IC50 (ATR/ATRIP complex) | Compound |
| --- | --- | --- |
| 804 nM | 118 nM | C[C@@H]1COCCN1c1cc(N=S(C)(C)=O)nc(-c2ccnc3[nH]cnc23)c1 [Example 2, (R)-((6-(3H-Imidazo[4,5-b]pyridin-7-yl)-4-(3-methylmorpholino)pyridin-2-yl)imino)dimethyl-λ^6-sulfanone] |
| 10000 nM | 986 nM | Cc1nc2cccnc2n1-c1cc(N2CCOC[C@H]2C)cc(N=S(C)(C)=O)n1 [Example 4, (R)-Dimethyl((6-(2-methyl-3H-imidazo[4,5-b]pyridin-3-yl)-4-(3-methylmorpholino)pyridin-2-yl)imino)-λ^6-sulfanone] |
| 5560 nM | – | C[C@@H]1COCCN1c1cc(N=S(C)(C)=O)nc(-c2cn[nH]c2)c1 [Example 36, (R)-dimethyl((4-(3-methylmorpholino)-6-(1H-pyrazol-4-yl)pyridin-2-yl)imino)-λ^6-sulfanone] |
| 35 nM | 1 nM | CNc1nc2ccccc2n1-c1cc(N2CCOC[C@H]2C)cc(N=S(C)(C)=O)n1 [Example 10, (R)-Dimethyl((6-(2-(methylamino)-1H-benzo[d]imidazol-1-yl)-4-(3-methylmorpholino)pyridin-2-yl)imino)-λ^6-sulfanone] |
| 3330 nM | 5 nM | C[C@@H]1COCCN1c1cc(N=S(C)(C)=O)nc(-n2c(CF)nc3ccccc32)c1 [Example 8, (R)-((6-(2-(Fluoromethyl)-1H-benzo[d]imidazol-1-yl)-4-(3-methylmorpholino)pyridin-2-yl)imino)dimethyl-λ^6-sulfanone] |
| 364 nM | 12 nM | C[C@@H]1COCCN1c1cc(N=S(C)(C)=O)nc(-c2cccc3[nH]ccc23)c1 [Example 20, (R)-((6-(1H-indol-4-yl)-4-(3-methylmorpholino)pyridin-2-yl)imino)dimethyl-λ^6-sulfanone] |
| 9620 nM | – | C[C@@H]1COCCN1c1cc(N=S(C)(C)=O)nc(-c2cncn2C)c1 [Example 35, (R)-dimethyl((6-(1-methyl-1H-imidazol-5-yl)-4-(3-methylmorpholino)pyridin-2-yl)imino)-λ^6-sulfanone] |
| 2320 nM | 5 nM | C[C@@H]1COCCN1c1cc(N=S(C)(C)=O)nc(-n2c(C(F)F)nc3ccccc32)c1 [Example 6, (R)-((6-(2-(Difluoromethyl)-1H-benzo[d]imidazol-1-yl)-4-(3-methylmorpholino)pyridin-2-yl)imino)dimethyl-λ^6-sulfanone] |
| 99 nM | 11 nM | Cc1cc2c(-c3cc(N4CCOC[C@H]4C)cc(N=S(C)(C)=O)n3)ccnc2[nH]1 [Example 12, (R)-dimethyl((6-(2-methyl-1H-pyrrolo[2,3-b]pyridin-4-yl)-4-(3-methylmorpholino)pyridin-2-yl)imino)-λ^6-sulfanone] |
| 3060 nM | 3470 nM | C[C@@H]1COCCN1c1cc(N=S(C)(C)=O)nc(-c2nccn2C)c1 [Example 31, (R)-dimethyl((6-(1-methyl-1H-imidazol-2-yl)-4-(3-methylmorpholino)pyridin-2-yl)imino)-λ^6-sulfanone] |
| 467 nM | 8 nM | C[C@@H]1COCCN1c1cc(N=S(C)(C)=O)nc(-c2cccc3[nH]cnc23)c1 [Example 23, (R)-((6-(1H-benzo[d]imidazol-4-yl)-4-(3-methylmorpholino)pyridin-2-yl)imino)dimethyl-λ^6-sulfanone] |
| 8210 nM | – | C[C@@H]1COCCN1c1cc(N=S(C)(C)=O)nc(-c2cc[nH]n2)c1 [Example 37, (R)-dimethyl((4-(3-methylmorpholino)-6-(1H-pyrazol-3-yl)pyridin-2-yl)imino)-λ^6-sulfanone] |
| 10000 nM | – | C[C@@H]1COCCN1c1cc(N=S(C)(C)=O)nc(-c2ccn(C)n2)c1 [Example 38, (R)-dimethyl((6-(1-methyl-1H-pyrazol-3-yl)-4-(3-methylmorpholino)pyridin-2-yl)imino)-λ^6-sulfanone] |
